Test results: patent US9676789B2, “Aminated derivative of homoharringtonine, preparation method therefor, and application thereof” (HANGZHOU BENSHENG PHARMACEUTICAL CO., LTD., priority 2011, dated 2017)
In brackets after ≈: the same amount, converted by molar mass.

Tests used:
[1] = tested on: Jurkat (acute lymphoblastic leukemia, ALL); assay: MTT leukemia cell growth inhibition, 72 h; type: cell-based, human; details: Homo sapiens
How it was run: (§1)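 Using 6000 leukemia cells per well in 1640 medium supplemented with 10% fetal bovine serum, homoharringtonine derivatives at different concentrations were applied for 72 h, then viability was assessed by MTT.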

[2] = tested on: NB4 (acute promyelocytic leukemia, AML); assay: MTT leukemia cell growth inhibition, 72 h; type: cell-based, human; details: Homo sapiens, NB4, 72 h
How it was run: as §1

[3] = tested on: K562/adr (drug-resistant, chronic myeloid leukemia, CML); assay: MTT leukemia cell growth inhibition, 72 h; type: cell-based, human; details: Homo sapiens, K562/Adr
How it was run: as §1

[4] = tested on: Kasumi-1 (acute myeloid leukemia M2 type, AML-M2); assay: MTT leukemia cell growth inhibition, 72 h; type: cell-based, human; details: Homo sapiens, Kasumi-1, 72 h
How it was run: as §1

[5] = tested on: H9 (acute lymphoblastic leukemia, ALL); assay: MTT leukemia cell growth inhibition, 72 h; type: cell-based, human; details: Homo sapiens, H9, 72 h
How it was run: as §1

[6] = tested on: U87 MG (malignant glioma cell); assay: MTT solid tumor cell growth inhibition, 72 h; type: cell-based, human; details: Homo sapiens, U-87 MG
How it was run: (§2)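 Percent cell viability comes from the MTT method, normalised to untreated control wells as 100%. Compounds at varying concentrations were left on the cells for 72 h after a 24 h settling period, with 4000 cells seeded per well in 10% FBS-supplemented DMEM high glucose.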

[7] = tested on: CNE (nasopharyngeal carcinoma cell); assay: MTT solid tumor cell growth inhibition, 72 h; type: cell-based, human; details: Homo sapiens
How it was run: as §2

MG63 (osteosarcoma) = assay: MTT solid tumor cell growth inhibition, 72 h; type: cell-based, human; details: Homo sapiens, MG 63, 72 h
How it was run: as §2

[8] = tested on: PANC-1 (pancreatic cancer); assay: MTT solid tumor cell growth inhibition, 72 h; type: cell-based, human; details: Homo sapiens, PANC-1, 72 h
How it was run: as §2

[9] = tested on: CaES-17 (esophageal cancer cell); assay: MTT solid tumor cell growth inhibition, 72 h; type: cell-based, human; details: Homo sapiens, CaEs17, CaES-17, 72 h
How it was run: as §2

PC-3 (prostate cancer) = assay: MTT solid tumor cell growth inhibition, 72 h; type: cell-based, human; details: Homo sapiens, PC-3, 72 h
How it was run: as §2

[10] = tested on: SK-OV-3 (ovarian cancer cell); assay: MTT solid tumor cell growth inhibition, 72 h; type: cell-based, human; details: Homo sapiens, SK-OV-3, 72 h
How it was run: as §2

[11] = tested on: Becap37 (human breast cancer cell); assay: MTT solid tumor cell growth inhibition, 72 h; type: cell-based; details: Homo sapiens, Becap37, 72 h
How it was run: as §2

A549 (human lung cancer) = assay: MTT solid tumor cell growth inhibition, 72 h; type: cell-based; details: Homo sapiens, A549, 72 h
How it was run: as §2

[12] = tested on: Hep-2 (human hepatocellular carcinoma); assay: MTT solid tumor cell growth inhibition, 72 h; type: cell-based; details: Homo sapiens, HEp-2, Hep2, 72 h
How it was run: as §2

[13] = tested on: RKO (human colon adenocarcinoma cell); assay: MTT solid tumor cell growth inhibition, 72 h; type: cell-based; details: Homo sapiens
How it was run: as §2

[14] = tested on: Huh7 (human liver cancer cell); assay: MTT solid tumor cell growth inhibition, 72 h; type: cell-based; details: Homo sapiens, Huh-7, Huh7, 72 h
How it was run: as §2

[15] = tested on: Hela (human cervical cancer cell); assay: MTT solid tumor cell growth inhibition, 72 h; type: cell-based; details: Homo sapiens, HeLa
How it was run: as §2

[16] = tested on: MGC 803 (human gastric cancer cell); assay: MTT solid tumor cell growth inhibition, 72 h; type: cell-based; details: Homo sapiens, MGC 803, 72 h
How it was run: as §2

[17] = tested on: K562/adr, NB4, Kasumi-1 and H9; assay: Anti-leukemia activity, summary over cell lines; type: cell-based, human; details: result in words, summary of Table 1
Source text: Leukemia cell lines: K562/adr (drug-resistant, chronic myeloid leukemia, CML), NB4 (acute promyelocytic leukemia, AML), Kasumi-1 (acute myeloid leukemia M2 type, AML-M2), Jurkat (acute lymphoblastic leukemia, ALL), all of which are donated by Cancer Research Institute of Zhejiang University, China; and H9 (acute lymphoblastic leukemia, ALL), which is purchased from China Center for Type Culture Collection.
Obtaining 6000 well-growing leukemia cells and inoculating them into wells of a 96-well cell culture plate. The culture medium is the 1640 cell culture medium containing 10% fetal bovine serum. After adding the homoharringtonine derivatives of different concentrations and mixing uniformly, placing the plate in a carbon dioxide cell incubator (5% CO2) at 37° C. and incubating for 72 hours. Then the viable cell concentration is determined by the MTT method. In this experiment, the cell viability in control group (not treated with any compound) is set as 100%.

[18] = tested on: RPMI8226 (multiple myeloma); assay: MTT multiple myeloma cell growth inhibition, 72 h; type: cell-based, human
How it was run: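 Viability determined by MTT after 72 h of compound exposure at 37° C under 5% CO2. Myeloma RPMI8226 cells were seeded at 6000 per well in 1640 medium containing 10% fetal bovine serum.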

[19] = tested on: A549, PANC-1, Becap37, MG63, Huh7, RKO, Hela, CaES-17, CNE, Hep-2, PC-3 and SK-OV-3; assay: Anti-human solid tumor effect, summary over cell lines; type: cell-based; details: result in words, summary of Table 2
Experimental: Human solid tumor cell lines: Hep-2 ([…]), A549 (human lung cancer), CaES-17 (esophageal cancer cell), PC-3 (prostate cancer), CNE (nasopharyngeal carcinoma cell), and SK-OV-3 (ovarian cancer cell), all of which are purchased from China Center For Type Culture Collection; RKO (human colon adenocarcinoma cell), MGC 803 (human gastric cancer cell), MG63 (osteosarcoma) and U87 MG (malignant glioma cell), all of which are purchased from Fuxiang Bio-tech Co. Ltd., Shanghai, China; PANC-1 (pancreatic cancer), Huh7 (human liver cancer cell), Becap37 (human breast cancer cell), and Hela (human cervical cancer cell), all of which are donated by Cancer Research Institute of Zhejiang University, China.
Obtaining 4000 well-growing human solid tumor cells and inoculating them into wells of a 96-well cell culture plate. The culture medium is DMEM High Glucose cell culture medium containing 10% fetal bovine serum. The plate is placed in a carbon dioxide cell incubator (5% CO2) at 37° C. and incubating for 24 hours. After adding the homoharringtonine derivatives of different concentration and mixing uniformly, the plate is placed in a carbon dioxide cell incubator (5% CO2) at 37° C. and incubating for 72 hours. Then the viable cell concentration is determined by the MTT method and the cell viability (%) after drug treatment is calculated. In this experiment, the cell viability of control group (not treated with any compound) is set as 100%.

Compound: COC1=C[C@]23CCCN2CCc2cc4c(cc2[C@@H]3[C@@H]1OC(=O)[C@@](O)(CCCC(C)(C)O)CC(=O)NC1CCCCC1)OCO4 [BS-HH-042, O-3-[(2R)-2,6-dihydroxy-2-(2′-cyclohexaneamino-2′-oxoethyl)-6-methylheptanoyl]cephalotaxine]
- IC50 ([1]; read-out: IC50): 0.037 mg/L (≈ 0.0604 µM)
- IC90 ([1]; read-out: IC90): 16 mg/L (≈ 26.1 µM)
- IC50 ([2]; read-out: IC50): 0.06 mg/L (≈ 0.0979 µM)
- IC90 ([2]; read-out: IC90): 0.13 mg/L (≈ 0.212 µM)
- IC50 ([3]; read-out: IC50): 3.2 mg/L (≈ 5.22 µM)
- IC90 ([3]; read-out: IC90): 16 mg/L (≈ 26.1 µM)
- IC50 ([4]; read-out: IC50): 0.048 mg/L (≈ 0.0783 µM)
- IC90 ([4]; read-out: IC90): 0.21 mg/L (≈ 0.343 µM)
- IC50 ([5]; read-out: IC50): 0.04 mg/L (≈ 0.0653 µM)
- IC90 ([5]; read-out: IC90): 0.1 mg/L (≈ 0.163 µM)
- IC50 ([6]; read-out: IC50): 0.12 mg/L (≈ 0.196 µM)
- IC90 ([6]; read-out: IC90): 13 mg/L (≈ 21.3 µM)
- IC50 ([7]; read-out: IC50): 0.13 mg/L (≈ 0.212 µM)
- IC90 ([7]; read-out: IC90): > 16 mg/L
- IC50 (MG63 (osteosarcoma); read-out: IC50): 0.12 mg/L (≈ 0.196 µM)
- IC90 (MG63 (osteosarcoma); read-out: IC90): 16 mg/L (≈ 26.1 µM)
- IC50 ([8]; read-out: IC50): 0.13 mg/L (≈ 0.212 µM)
- IC90 ([8]; read-out: IC90): > 16 mg/L
- IC50 ([9]; read-out: IC50): 0.29 mg/L (≈ 0.473 µM)
- IC90 ([9]; read-out: IC90): 16 mg/L (≈ 26.1 µM)
- IC50 (PC-3 (prostate cancer); read-out: IC50): 0.31 mg/L (≈ 0.506 µM)
- IC90 (PC-3 (prostate cancer); read-out: IC90): > 16 mg/L
- IC50 ([10]; read-out: IC50): 0.21 mg/L (≈ 0.343 µM)
- IC90 ([10]; read-out: IC90): > 16 mg/L
- IC50 ([11]; read-out: IC50): 0.17 mg/L (≈ 0.277 µM)
- IC90 ([11]; read-out: IC90): > 16 mg/L
- IC50 (A549 (human lung cancer); read-out: IC50): 0.45 mg/L (≈ 0.734 µM)
- IC90 (A549 (human lung cancer); read-out: IC90): > 16 mg/L
- IC50 ([12]; read-out: IC50): 0.97 mg/L (≈ 1.58 µM)
- IC90 ([12]; read-out: IC90): > 16 mg/L
- IC50 ([13]; read-out: IC50): 0.029 mg/L (≈ 0.0473 µM)
- IC90 ([13]; read-out: IC90): 0.23 mg/L (≈ 0.375 µM)
- IC50 ([14]; read-out: IC50): 0.044 mg/L (≈ 0.0718 µM)
- IC90 ([14]; read-out: IC90): > 16 mg/L
- IC50 ([15]; read-out: IC50): 0.45 mg/L (≈ 0.734 µM)
- IC90 ([15]; read-out: IC90): > 16 mg/L
- IC50 ([16]; read-out: IC50): 0.096 mg/L (≈ 0.157 µM)
- IC90 ([16]; read-out: IC90): 0.25 mg/L (≈ 0.408 µM)
- anti-K562/adr, anti-NB4, anti-Kasumi-1 and anti-H9 activity [17]: strong
- IC50 ([18]; Homo sapiens, RPMI-8226, RPMI8226, 72 h, read-out: IC50): 0.042 mg/L (≈ 0.0685 µM)
- IC90 ([18]; Homo sapiens, RPMI-8226, RPMI8226, 72 h, read-out: IC90): 0.24 mg/L (≈ 0.392 µM)
- anti-RPMI8226 (multiple myeloma) effect ([18]; result in words, summary of Table 2): strong
- anti-A549, anti-PANC-1, anti-Becap37, anti-MG63, anti-Huh7, anti-RKO, anti-Hela, anti-CaES-17, anti-CNE, anti-Hep-2, anti-PC-3 and anti-SK-OV-3 effect [19]: strong
